This assay in a line: Inhibition of rat brain Na(+)/K(+) ATPase.

Where a name gives a salt, the structure may show the parent alone.

What is called IC50 is the concentration that gives 50% inhibition. The low end stands for greater potency, the high end for weaker potency. Turning to `CC(C)=CCC/C(C)=C/CC/C(C)=C/CC/C(C)=C/CC/C(C)=C/CC/C(C)=C/CC/C(C)=C/Cc1cc(OS(=O)(=O)O)ccc1OS(=O)(=O)O` [DISODIUM SARCOHYDROQUINONE SULFATE B], the half-inhibitory concentration (IC50) was determined as 1.4 µM.

`CC(C)=CCC/C(C)=C/CC/C(C)=C/CC/C(C)=C/CC/C(C)=C/CCC1(C)C=Cc2cc(OS(=O)(=O)O)ccc2O1` (configuration not stated) [SODIUM SARCOCHROMENOL SULFATE A] returned a 50% inhibitory concentration (IC50) of 1.6 µM.

(Values after ChEMBL document CHEMBL1149739, “Sarcochromenol sulfates A-C and sarcohydroquinone sulfates A-C, new natural products from the sponge Sarcotragus spinulosus” (J Nat Prod, 1992).)
